Assay results from patent US7772241B2, “Variolin derivatives and their use as antitumor agents” (Pharma Mar S.A., priority 2001, dated 2010).
Read-outs that look alike come from different tables or passages of the source.

Experiments:
A-549 = assay: Inhibition of cells growth by colorimetric (SRB) assay, A-549
Procedure, shortened: (§1)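 Human tumour cells in RPMI 1640 with 10% FBS were seeded at 5×10^3 cells/well, allowed to attach for 18 h, then exposed to samples at 10 to 10^−8 μg/ml for 48 h. Growth was measured by SRB staining after TCA fixation, with absorbance read at 490 nm in triplicate wells.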

SK-BR-3 = assay: Inhibition of cells growth by colorimetric (SRB) assay, SK-BR-3; conditions: for GI50: read-out: GI50 SK-BR-3, SRB assay, 48 hours exposure
Procedure, shortened: as §1

SK-OV-3 = assay: Inhibition of cells growth by colorimetric (SRB) assay, SK-OV-3; conditions: for CC50: read-out: LC50 SKOV-3, SRB assay, 48 hours exposure
Procedure, shortened: as §1

IGROV-1 = assay: Inhibition of cells growth by colorimetric (SRB) assay, IGROV-1
Procedure, shortened: as §1

IGROV-ET = assay: Inhibition of cells growth by colorimetric (SRB) assay, IGROV-ET; conditions: for CC50: read-out: LC50 IGROV-ET, SRB assay, 48 hours exposure
Procedure, shortened: as §1

LoVo-Dox = assay: Inhibition of cells growth by colorimetric (SRB) assay, LoVo-Dox; conditions: for GI50 / CC50: Homo sapiens, 48 h; for GI50: read-out: GI50 LOVO-DOX, SRB assay, 48 hours exposure; for CC50: read-out: LC50 LOVO-DOX, SRB assay, 48 hours exposure; for TGI LOVO-DOX: SRB assay, 48 hours exposure
Procedure, shortened: as §1

DU-145 = assay: Inhibition of cells growth by colorimetric (SRB) assay, DU-145; conditions: for GI50: read-out: GI50 DU-145, SRB assay, 48 hours exposure
Procedure, shortened: as §1

HT-29 = assay: Inhibition of cells growth by colorimetric (SRB) assay, HT-29; conditions: for GI50 / CC50: Homo sapiens, HT-29, 48 h; for GI50: read-out: GI50 HT-29, SRB assay, 48 hours exposure; for CC50: read-out: LC50 HT-29, SRB assay, 48 hours exposure; for TGI HT-29: SRB assay, 48 hours exposure
Procedure, shortened: as §1

LNCaP = assay: Inhibition of cells growth by colorimetric (SRB) assay, LNCaP
Procedure, shortened: as §1

SK-MEL-28 = assay: Inhibition of cells growth by colorimetric (SRB) assay, SK-MEL-28; conditions: for GI50 / CC50: Homo sapiens, SK-MEL-28, 48 h; for GI50: read-out: GI50 MEL-28, SRB assay, 48 hours exposure; for CC50: read-out: LC50 MEL-28, SRB assay, 48 hours exposure; for TGI MEL-28: SRB assay, 48 hours exposure
Procedure, shortened: as §1

PANC-1 = assay: Inhibition of cells growth by colorimetric (SRB) assay, PANC-1; conditions: for GI50 / CC50: Homo sapiens, PANC-1, 48 h; for GI50: read-out: GI50 PANC-1, SRB assay, 48 hours exposure; for CC50: read-out: LC50 PANC-1, SRB assay, 48 hours exposure; for TGI PANC-1: SRB assay, 48 hours exposure
Procedure, shortened: as §1

HMEC1 = assay: Inhibition of cells growth by colorimetric (SRB) assay, HMEC1; conditions: for TGI H-MEC-1: in M (unit assumed)
[1] = as above; conditions: human, HMEC1 cells, LC50 H-MEC-1, SRB assay, 48 hours exposure
K-562 = assay: Inhibition of cells growth by colorimetric (SRB) assay, K-562
Procedure, shortened: as §1

LoVo = assay: Inhibition of cells growth by colorimetric (SRB) assay, LoVo; conditions: for GI50 / CC50: Homo sapiens, LoVo, 48 h; for GI50: read-out: GI50 LOVO, SRB assay, 48 hours exposure; for CC50: read-out: LC50 LOVO, SRB assay, 48 hours exposure; for TGI LOVO: SRB assay, 48 hours exposure
Procedure, shortened: as §1

SMILES: COc1nccc(-c2c3cccnc3n3c(N)nccc23)n1.Cl [Compound 81]
- TGI A-549 (A-549; SRB assay, 48 hours exposure): 3.04E−05
- GI50 (A-549; read-out: GI50 A-549, SRB assay, 48 hours exposure): ≥ 30.4 µM
- CC50 (A-549; read-out: LC50 A-549, SRB assay, 48 hours exposure): ≥ 30.4 µM
- GI50 (SK-BR-3; Homo sapiens, SK-BR-3, 48 h): 0.855 µM
- TGI SK-BR-3 (SK-BR-3; SRB assay, 48 hours exposure): 2.26E−06
- CC50 (SK-BR-3; read-out: LC50 SK-BR-3, SRB assay, 48 hours exposure): 9.49 µM
- CC50 (SK-OV-3; Homo sapiens, SK-OV-3, 48 h): 34.5 µM
- TGI SKOV-3 (SK-OV-3; SRB assay, 48 hours exposure): 8.52E−06
- GI50 (SK-OV-3; read-out: GI50 SKOV-3, SRB assay, 48 hours exposure): 0.797 µM
- TGI IGROV (IGROV-1; SRB assay, 48 hours exposure): 2.70E−06
- GI50 (IGROV-1; read-out: GI50 IGROV, SRB assay, 48 hours exposure): 0.21 µM
- CC50 (IGROV-1; read-out: LC50 IGROV, SRB assay, 48 hours exposure): 20.5 µM
- CC50 (IGROV-ET; Homo sapiens, 48 h): ≥ 30.4 µM
- TGI IGROV-ET (IGROV-ET; SRB assay, 48 hours exposure): 2.28E−07
- GI50 (IGROV-ET; read-out: GI50 IGROV-ET, SRB assay, 48 hours exposure): 0.0855 µM
- GI50 (LoVo-Dox): 0.706 µM
- CC50 (LoVo-Dox): ≥ 30.4 µM
- TGI LOVO-DOX (LoVo-Dox): 3.04E−06
- GI50 (DU-145; Homo sapiens, DU-145, 48 h): 0.928 µM
- TGI DU-145 (DU-145; SRB assay, 48 hours exposure): 2.40E−06
- CC50 (DU-145; read-out: LC50 DU-145, SRB assay, 48 hours exposure): > 30.4 µM
- GI50 (HT-29): 1.3 µM
- CC50 (HT-29): ≥ 30.4 µM
- TGI HT-29 (HT-29): 3.04E−05
- TGI LN-caP (LNCaP; SRB assay, 48 hours exposure): 2.61E−07
- GI50 (LNCaP; read-out: GI50 LN-caP, SRB assay, 48 hours exposure): 0.158 µM
- CC50 (LNCaP; read-out: LC50 LN-caP, SRB assay, 48 hours exposure): 2.77 µM
- GI50 (SK-MEL-28): 0.313 µM
- CC50 (SK-MEL-28): 1.74 µM
- TGI MEL-28 (SK-MEL-28): 7.36E−07
- GI50 (PANC-1): 1 µM
- CC50 (PANC-1): ≥ 30.4 µM
- TGI PANC-1 (PANC-1): 2.86E−06
- TGI H-MEC-1 (HMEC1; SRB assay, 48 hours exposure): 2.62E−07
- GI50 (HMEC1; read-out: GI50 H-MEC-1, SRB assay, 48 hours exposure): 0.171 µM
- CC50 at 48 h [1]: 0.858 µM
- TGI K-562 (K-562; SRB assay, 48 hours exposure): 3.29E−07
- GI50 (K-562; read-out: GI50 K-562, SRB assay, 48 hours exposure): 0.0791 µM
- CC50 (K-562; read-out: LC50 K-562, SRB assay, 48 hours exposure): 0.523 µM
- GI50 (LoVo): 0.224 µM
- CC50 (LoVo): ≥ 30.4 µM
- TGI LOVO (LoVo): 1.77E−06

SMILES: Nc1nccc(-c2c3cc(Cl)cnc3n3c(N)nccc23)n1 [Compound 49]
- GI50 (A-549; Homo sapiens, A549, 48 h, read-out: GI50 A-549, SRB assay, 48 hours exposure): 2.11 µM
- CC50 (A-549; Homo sapiens, A549, 48 h, read-out: LC50 A-549, SRB assay, 48 hours exposure): 32.1 µM
- TGI A-549 (A-549; SRB assay, 48 hours exposure): 9.21E−06
- GI50 (SK-BR-3; Homo sapiens, SK-BR-3, 48 h): 7.19 µM
- CC50 (SK-BR-3; Homo sapiens, SK-BR-3, 48 h, read-out: LC50 SK-BR-3, SRB assay, 48 hours exposure): 32.1 µM
- TGI SK-BR-3 (SK-BR-3; SRB assay, 48 hours exposure): 1.86E−05
- GI50 (SK-OV-3; Homo sapiens, SK-OV-3, 48 h, read-out: GI50 SKOV-3, SRB assay, 48 hours exposure): 5.42 µM
- CC50 (SK-OV-3; Homo sapiens, SK-OV-3, 48 h): 32.1 µM
- TGI SKOV-3 (SK-OV-3; SRB assay, 48 hours exposure): 1.50E−05
- GI50 (IGROV-1; Homo sapiens, IGROV-1, 48 h, read-out: GI50 IGROV, SRB assay, 48 hours exposure): 4.68 µM
- CC50 (IGROV-1; Homo sapiens, IGROV-1, 48 h, read-out: LC50 IGROV, SRB assay, 48 hours exposure): 29.3 µM
- TGI IGROV (IGROV-1; SRB assay, 48 hours exposure): 1.17E−05
- GI50 (IGROV-ET; Homo sapiens, 48 h, read-out: GI50 IGROV-ET, SRB assay, 48 hours exposure): 4.23 µM
- CC50 (IGROV-ET; Homo sapiens, 48 h): 32.1 µM
- TGI IGROV-ET (IGROV-ET; SRB assay, 48 hours exposure): 1.20E−05
- GI50 (LoVo-Dox): 2.11 µM
- CC50 (LoVo-Dox): 27.6 µM
- TGI LOVO-DOX (LoVo-Dox): 7.86E−06
- GI50 (DU-145; Homo sapiens, DU-145, 48 h): 5.33 µM
- CC50 (DU-145; Homo sapiens, DU-145, 48 h, read-out: LC50 DU-145, SRB assay, 48 hours exposure): 32.1 µM
- TGI DU-145 (DU-145; SRB assay, 48 hours exposure): 1.38E−05
- GI50 (HT-29): 12 µM
- CC50 (HT-29): 32.1 µM
- TGI HT-29 (HT-29): 3.21E−05
- GI50 (LNCaP; Homo sapiens, LNCaP, 48 h, read-out: GI50 LN-caP, SRB assay, 48 hours exposure): 1.26 µM
- CC50 (LNCaP; Homo sapiens, LNCaP, 48 h, read-out: LC50 LN-caP, SRB assay, 48 hours exposure): 19.5 µM
- TGI LN-caP (LNCaP; SRB assay, 48 hours exposure): 4.30E−06
- GI50 (SK-MEL-28): 6.35 µM
- CC50 (SK-MEL-28): 32.1 µM
- TGI MEL-28 (SK-MEL-28): 1.43E−05
- GI50 (PANC-1): 10.7 µM
- CC50 (PANC-1): 32.1 µM
- TGI PANC-1 (PANC-1): 3.21E−05
- GI50 (HMEC1; Homo sapiens, HMEC-1, 48 h, read-out: GI50 H-MEC-1, SRB assay, 48 hours exposure): 0.456 µM
- TGI H-MEC-1 (HMEC1; SRB assay, 48 hours exposure): 4.59E−06
- CC50 at 48 h [1]: 8.73 µM
- GI50 (K-562; Homo sapiens, K562, 48 h, read-out: GI50 K-562, SRB assay, 48 hours exposure): 13.9 µM
- CC50 (K-562; Homo sapiens, K562, 48 h, read-out: LC50 K-562, SRB assay, 48 hours exposure): 32.1 µM
- TGI K-562 (K-562; SRB assay, 48 hours exposure): 2.77E−05
- GI50 (LoVo): 2.37 µM
- CC50 (LoVo): 32.1 µM
- TGI LOVO (LoVo): 1.16E−05
